These results are taken from article PMC7955127, “Preclinical small molecule WEHI-7326 overcomes drug resistance and elicits response in patient-derived xenograft models of human treatment-refractory tumors” (Cell Death & Disease, 2021).

Assay [1] has as its system COG-N-496x neuroblastoma PDX. Nature of the assay: High-risk neuroblastoma PDX COG-N-496x. The format is in vivo, NSG mice. To be noted: COG-N-496x PDX; vincristine 0.5 mg/kg i.p. once weekly. Here is the method:
(§1) All animal studies were performed in accordance with the guidelines approved by University of New South Wales Animal Care and Ethics Committee (ACEC 17/53B) and in accordance with the requirements of the Australian Code for the Care and Use of Animals for Scientific Purposes. PDX models COG-N-440x and COG-N-496x were obtained from the Childhood Cancer Repository, Texas Tech University Health Sciences Center in Lubbock, TX, USA. 6–8 week old female NSG mice were engrafted by subcutaneous injection with 1 × 10^6 freshly thawed PDX tumor cells into one flank in a mixture of 100 μl RPMI-1640 and 100 μl Matrigel. Mice were monitored for tumor development three times weekly and tumor size measured using digital Vernier calipers. Treatments commenced when tumors reached 50 mm^3, following randomization into treatment arms. […] Mice were treated with either vincristine (0.5 mg/kg, once weekly i.p. in sterile saline for up to 5 weeks), WEHI-7326 (20 mg/kg; twice weekly i.v. in sterile saline for up to 5 weeks) or vehicle (as for WEHI-7326). For the Th-MYCN transgenic mouse model, spontaneous tumor growth in mice homozygous for the MYCN transgene was assessed by abdominal palpation at least twice a week. Treatments commenced once a small palpable tumor (~5 mm) was detected, following randomization to treatment arms. Mice were euthanized upon detection of an abdominal tumor of ~1 cm in diameter. […]

The test system of assay [2] is COG-N-440x neuroblastoma PDX. Nature of the assay: High-risk neuroblastoma PDX COG-N-440x. The conditions noted are these: COG-N-440x PDX; vincristine 0.5 mg/kg i.p. once weekly. Type of assay: in vivo, NSG mice. The method, then:
as §1

Consider `CC[C@]1(O)C[C@H]2CN(CCc3c([nH]c4ccccc34)[C@@](C(=O)OC)(c3cc4c(cc3OC)N(C=O)[C@H]3[C@@](O)(C(=O)OC)[C@H](OC(C)=O)[C@]5(CC)C=CCN6CC[C@]43[C@@H]65)C2)C1` [vincristine, reference compound], for which the Efficacy entry in assay [1] and in assay [2] was “entirely ineffective” each time.
